Series [1] is described as follows: pH dependence of EPR spectra (titration), pK by fitting. Type of series: physicochemical. The note with it: for pK (pH dependence of EPR spectra): amino group protonation, 5 mM phosphate-citrate-borate buffer, 25 °C; for pK, first protonation (free base to monocation): transition at high pH; for pK, first protonation (free base to monocation) / pKa, second protonation (monocation to dication): EPR titration; for pKa, second protonation (monocation to dication): transition at low pH. The protocol:
The pH-dependences of the EPR spectra were investigated using the 0.2 mM solutions of the nitroxides in 5 mM phosphate-citrate-borate buffer on a Bruker ER-200D-SRC spectrometer in 50 µL glass capillary for 0.2 mM radical solutions. Spectrometer settings: frequency, 9.87 GHz; microwave power, 5.0 mW; modulation amplitude, 0.1 mT; time constant, 50–100 ms; and conversion time, 50.12 ms. Small portions of 0.1–1 N HCl or 0.1–1 N NaOH were added to the stirred solution of a nitroxide in buffer at 25 °C, while the pH was controlled using pH-meter. After the equilibrium was established, the samples were taken from the solution and the EPR spectra were measured. The experimental points were fitted with the Equation (1) to obtain the pKa values. (1) aN(pH)=(p1+p2×10^pK1−pH+p3×10^pK1+pK2−2×pH)/1+10^pK1−pH+10^pK1+pK2−2×pH

A short description of series [2]: Kinetics of nitroxide reduction with ascorbate in the presence of glutathione, followed by EPR. The conditions noted are these: ascorbate 100–300 mM, glutathione 5 mM, 5 mM phosphate-citrate-borate buffer, pH 7.4, 25 °C; values are kred × 10^4. Type of series: physicochemical. The protocol: (§1) For kinetic measurements in water, stock solutions of nitroxide, ascorbic acid and glutathione in phosphate-citrate-borate buffer (5 mM, pH 7.4) were prepared, and pH was adjusted to 7.4 with NaOH or HCl. All the solutions were deoxygenated with argon, carefully and quickly mixed in a small tube to attain final concentrations (nitroxide, 0.2–04 mM; GSH, 5 mM; and ascorbate, 100–300 mM) and were placed into an EPR capillary (50 μL). The choice of acsorbate concentration is a compromise between the low reduction rate, which requires very long experiment time and deviations of the kinetics from linearity at higher ascorbate concentrations due to ionic strength effects. Since the ascorbate oxidation is slow under these conditions, the 5 mM concentration of GSH was sufficient to suppress the reverse reaction of ascorbate radical with the hydroxylamine, because the rate of the ascorbate radical formation was low. The increase in GSH concentration produced little effect on the final reduction rate constant values. The capillary was sealed on both sides and placed into the EPR resonator. The decay of amplitude of the low-field component of the EPR spectrum was followed to obtain the kinetics. The initial part of the decay curves (up to 20 min) was used for fitting. Kinetics of the decay was fitted to a monoexponential function to calculate the first-order rate constants. Then, these constants were divided by the concentration of ascorbic acid to calculate the second-order reaction constants. Partition coefficients in a water–octanol mixture were estimated from the amplitudes of the EPR spectra of a nitroxide in water after extensive shaking with different portions of added octanol and separation using centrifugation.

For series [3] the following is noted: values are kred × 10^4; cited from earlier work.
Series [4] is described as follows: Partition in octanol/aqueous 5 mM phosphate-citrate-borate buffer pH 7.4, estimated from EPR amplitudes. Type of series: physicochemical. The note with it: for partition coefficient (Kp): octanol/aqueous 5 mM phosphate-citrate-borate buffer pH 7.4; for partition octanol/buffer, result in words: after shaking with buffer pH 7.4. The protocol: Partition in octanol-water mixtures for ionizable compounds may depend on pH, and the pH changes may result from addition of the compound. Therefore, phosphate-citrate-borate buffer (5 mM, pH 7.4) was used for Kp measurements to make the partition closer to physiological conditions. […] Although monoamino derivatives 11 and 13 mainly exist in protonated form at pH 7.4, they still remain lipophilic and, therefore, should permeate cells. Amino groups are known to provide higher retention/intracellular accumulation due to transmembrane potential or ion-trapping effect. This effect was exploited in design of nitroxide contrast agents for MRI and radioprotectors. Cellular accumulation of spin labels like 11 and 13 may help to increase efficacy spin labeling using CuAAC or SPAAC.
as §1

Series [5] can be described thus: Solubility in water. The series is classed as physicochemical.

Consider 22 compounds from paper PMC10855552, “Hydrophilic Reduction-Resistant Spin Labels of Pyrrolidine and Pyrroline Series from 3,4-Bis-hydroxymethyl-2,2,5,5-tetraethylpyrrolidine-1-oxyl” (International Journal of Molecular Sciences, 2024).

Where two headings read alike, the source gives them in different places.

`CCC1(CC)C(CN)C(CO)C(CC)(CC)N1[O]` (stereo not shown) [compound 6, 3-(Aminomethyl)-2,2,5,5-tetraethyl-4-(hydroxymethyl)pyrrolidin-1-oxyl]: in series [1], the “pK (pH dependence of EPR spectra)” value is listed as “ca. 9”. As for `CCC1(CC)C(CN=[N+]=[N-])C(CNC(=O)OC(C)(C)C)C(CC)(CC)N1[O]` (stereo not shown) [compound 10, 3-(Azidomethyl)-4-((tert-butoxycarbonylamino)methyl)-2,2,5,5-tetraethylpyrrolidin-1-oxyl], the “kred × 10^4 (rate of reduction with ascorbate)” value in series [2] was 3.0 ± 1.0 M^−1 s^−1.

In the case of `CCC1(CC)CC(C(=O)O)C(CC)(CC)N1[O]` (stereo not shown) [compound 21, 3-carboxy-2,2,5,5-tetraethylpyrrolidine-1-oxyl, reference compound], the “kred × 10^4 (rate of reduction with ascorbate)” value in series [3] is 12.5 ± 0.3 [22] M^−1 s^−1. The “partition coefficient (Kp)” value in series [4] is 270. For `CCC1(CC)C(CN=[N+]=[N-])C(Cn2nnc(C(=O)[O-])c2C(=O)O)C(CC)(CC)N1[O].[Na+]` (stereo not shown) [compound 20, 3-(Azidomethyl)-4-((4,5-dicarboxy-1H-1,2,3-triazol-1-yl)methyl)-2,2,5,5-tetraethylpyrrolidin-1-oxyl monosodium salt], in series [4], the “partition octanol/buffer, result in words” value (“partition octanol/buffer” below) is given as “not detected in octanol”. Besides, the “kred × 10^4 (rate of reduction with ascorbate)” value in series [2] is 5.9 ± 1.2 M^−1 s^−1. For the compound `CCC1(CC)C(CN)=C(CN=[N+]=[N-])C(CC)(CC)N1[O]` [13b, 3-(Aminomethyl)-4-(azidomethyl)-2,2,5,5-tetraethyl-2,5-dihydro-1H-pyrrol-1-oxyl], the “partition coefficient (Kp)” value in series [4] is on record as 45 ± 2. The “pK (pH dependence of EPR spectra)” value in series [1] is “ca. 9”. For the same compound, the “kred × 10^4 (rate of reduction with ascorbate)” value in series [2] is listed as 7.6 ± 0.3 M^−1 s^−1. Turning to “3-(Azidomethyl)-2,2,5,5-tetraethyl-4-((trimethylammonio)methyl)-2,5-dihydro-1H-pyrrol-1-oxyl monoiodide [17b]”, the “partition octanol/buffer” value in series [4] was “not detected in octanol”. In addition, the “kred × 10^4 (rate of reduction with ascorbate)” value in series [2] was 16 ± 3.0 M^−1 s^−1. As to `CCC1(CC)C(CN=[N+]=[N-])=C(CN(C)C)C(CC)(CC)N1[O]` [11b, 3-(Azidomethyl)-4-((dimethylamino)methyl)-2,2,5,5-tetraethyl-2,5-dihydro-1H-pyrrol-1-oxyl], the “partition coefficient (Kp)” value in series [4] is recorded as 15 ± 1. In addition, the “pK (pH dependence of EPR spectra)” value in series [1] is listed as “ca. 9”. Further, the “kred × 10^4 (rate of reduction with ascorbate)” value in series [2] is 15 ± 4.0 M^−1 s^−1. “3-(Azidomethyl)-2,2,5,5-tetraethyl-4-((trimethylammonio)methyl)pyrrolidin-1-oxyl monoiodide [17a]”: in series [4], the “partition octanol/buffer” value is on record as “not detected in octanol”. For the same compound, the “kred × 10^4 (rate of reduction with ascorbate)” value in series [2] is reported as 3.0 ± 1.0 M^−1 s^−1. For `CCC1(CC)C(CN)C(CN(C)C)C(CC)(CC)N1[O]` (stereo not shown) [14a, 3-(Aminomethyl)-4-((dimethylamino)methyl)-2,2,5,5-tetraethylpyrrolidin-1-oxyl], in series [1], the “pK, first protonation (free base to monocation)” value is “ca. 11” and the “pKa, second protonation (monocation to dication)” value (from here on “pKa, second protonation”) was “ca. 3”. Further, the “pKa, second protonation” value in series [1] (listed as N,N-dimethyl-3,4-bis-(aminomethyl)-2,2,5,5-tetraethylpyrrolidine-1-oxyl) was 3. Further, in series [2], the “kred × 10^4 (rate of reduction with ascorbate)” value was found to be 6.4 ± 1.0 M^−1 s^−1. In the case of `CCC1(CC)C(CO)C(CO)C(CC)(CC)N1[O]` (stereo not shown) [compound 1, 3,4-bis-hydroxymethyl-2,2,5,5-tetraethylpyrrolidine-1-oxyl], in series [3], the “kred × 10^4 (rate of reduction with ascorbate)” value is 3.3 ± 0.8 [26] M^−1 s^−1. The “partition coefficient (Kp)” value in series [4] is reported as 41 ± 2. For the compound `CCC1(CC)C(CN(C)C)C(CN2C(=O)C=CC2=O)C(CC)(CC)N1[O]` (stereo not shown) [15a, 3-((Dimethylamino)methyl)-4-((2,5-dioxo-2,5-dihydro-1H-pyrrol-1-yl)methyl)-2,2,5,5-tetraethylpyrrolidin-1-oxyl], the “pK (pH dependence of EPR spectra)” value in series [1] was “ca. 9”. For the compound `CCC1(CC)C(CO)C(CN=[N+]=[N-])C(CC)(CC)N1[O]` (stereo not shown) [compound 5, 3-(Azidomethyl)-2,2,5,5-tetraethyl-4-(hydroxymethyl)pyrrolidin-1-oxyl], in series [5], the solubility in water entry was “poorly soluble in water”. In the case of `CCC1(CC)C(CN=[N+]=[N-])C(CN(C)C)C(CC)(CC)N1[O]` (stereo not shown) [11a, 3-(Azidomethyl)-4-((dimethylamino)methyl)-2,2,5,5-tetraethylpyrrolidin-1-oxyl], the “partition coefficient (Kp)” value in series [4] is recorded as 52 ± 5. In series [1], the “pK (pH dependence of EPR spectra)” value is listed as “ca. 9”. Also, the “kred × 10^4 (rate of reduction with ascorbate)” value in series [2] is 4.0 ± 1.0 M^−1 s^−1. For “3-((2,5-Dioxo-2,5-dihydro-1H-pyrrol-1-yl)methyl)-2,2,5,5-tetraethyl-4-((trimethylammonio)methyl)-2,5-dihydro-1H-pyrrol-1-oxyl monoiodide [16b]”, the “partition octanol/buffer” value in series [4] was “not detected in octanol”.

On to `CCC1(CC)C(CN)C(CN=[N+]=[N-])C(CC)(CC)N1[O]` (stereo not shown) [13a, 3-(Aminomethyl)-4-(azidomethyl)-2,2,5,5-tetraethylpyrrolidin-1-oxyl], for which the “partition coefficient (Kp)” value in series [4] is reported as 350 ± 35. Further, the “pK (pH dependence of EPR spectra)” value in series [1] was “ca. 9”. In addition, the “kred × 10^4 (rate of reduction with ascorbate)” value in series [2] was 6.3 ± 0.9 M^−1 s^−1. As for `CCC1(CC)C(CN(C)C)=C(CN2C(=O)C=CC2=O)C(CC)(CC)N1[O]` [15b, 3-((Dimethylamino)methyl)-4-((2,5-dioxo-2,5-dihydro-1H-pyrrol-1-yl)methyl)-2,2,5,5-tetraethyl-2,5-dihydro-1H-pyrrol-1-oxyl], the “pK (pH dependence of EPR spectra)” value in series [1] was “ca. 9”.

With `CCC1(CC)C(CNC(=O)OC(C)(C)C)C(COS(C)(=O)=O)C(CC)(CC)N1[O]` (stereo not shown) [compound 9, 3-(((tert-Butoxycarbonyl)amino)methyl)-2,2,5,5-tetraethyl-4-(((methylsulfonyl)oxy)methyl)pyrrolidin-1-oxyl], in series [2], the “kred × 10^4 (rate of reduction with ascorbate)” value came to 3.0 ± 1.0 M^−1 s^−1. Consider `CCC1(CC)C(CN)=C(CN(C)C)C(CC)(CC)N1[O]` [14b, 3-(Aminomethyl)-4-((dimethylamino)methyl)-2,2,5,5-tetraethyl-2,5-dihydro-1H-pyrrol-1-oxyl], for which the “partition coefficient (Kp)” value in series [4] was 7 ± 0.3. For the same compound, in series [1], the “pK, first protonation (free base to monocation)” value is given as “ca. 11” and the “pKa, second protonation” value is recorded as “ca. 3”. For the same compound, the “kred × 10^4 (rate of reduction with ascorbate)” value in series [2] is 8 ± 1.0 M^−1 s^−1. In the case of “3-((2,5-Dioxo-2,5-dihydro-1H-pyrrol-1-yl)methyl)-2,2,5,5-tetraethyl-4-((trimethylammonio)methyl)pyrrolidin-1-oxyl monoiodide [16a]”, in series [4], the “partition octanol/buffer” value is given as “not detected in octanol”. Regarding `CCC1(CC)C(CO)C(CNC(=O)OC(C)(C)C)C(CC)(CC)N1[O]` (stereo not shown) [compound 8, 3-(((tert-Butoxycarbonyl)amino)methyl)-2,2,5,5-tetraethyl-4-(hydroxymethyl)pyrrolidin-1-oxyl], the “kred × 10^4 (rate of reduction with ascorbate)” value in series [2] was found to be 6.0 ± 2.0 M^−1 s^−1. Take `CCC1(CC)C(CO)=C(CO)C(CC)(CC)N1[O]` [compound 22, 2,2,5,5-tetraethyl-3,4-bis(hydroxymethyl)-2,5-dihydro-1H-pyrrol-1-oxyl, reference compound]: the “partition coefficient (Kp)” value in series [4] was 37 ± 2. Moreover, the “kred × 10^4 (rate of reduction with ascorbate)” value in series [2] is reported as 3.4 ± 0.1 M^−1 s^−1.

Take `CCC1(CC)C(CO)C(CN2C(=O)C=CC2=O)C(CC)(CC)N1[O]` (stereo not shown) [compound 7, 3-((2,5-Dioxo-2,5-dihydro-1H-pyrrol-1-yl)methyl)-2,2,5,5-tetraethyl-4-(hydroxymethyl)pyrrolidin-1-oxyl]: in series [4], the “partition coefficient (Kp)” value is listed as 84 ± 2. Further, the solubility in water entry in series [5] is “poorly soluble in water”.
